Measurements: patent US9833506B2, “Vaccine—screening method” (priority 2011, dated 2017)
Read-outs that look alike come from different tables or passages of the source.

Legend:
Format in all cases: cell-based, human
[1] = tested on: CD4+ T cell lines killing peptide pulsed autologous EBV-transformed B cell lines; assay: Chromium release assay, perforin-dependent cytotoxicity of CD4+ T cell lines; details: CD4+ T cells incubated 2 h with 100 nM concanamycin; 51Cr release; FIG. 7b
[2] = tested on: T cells in PBMC of H3N2 (A/Wisconsin/67/05) challenge study subjects; details: for SFC/million PBMC (range): IFN-γ ELISPOT, peptide 2 μg/ml, 300,000 PBMC/well, background subtracted; for SFC/million PBMC (range) / CD4 or CD8 dependency: baseline samples; for CD4 or CD8 dependency: second ELISPOT after CD8 depletion, 4 = CD4, 8 = CD8; for Number positive (%): percent of subjects responding to the peptide at baseline; for Number positive: subjects responding to the peptide at baseline, of 8 subjects with peptides identified
[3] = tested on: T cells in PBMC of H1N1 (A/Brisbane/59/07) challenge study subjects; details: for SFC/million PBMC (range): IFN-γ ELISPOT, peptide 2 μg/ml, 300,000 PBMC/well, background subtracted; for Positive no(%): percent of subjects responding to the peptide at baseline; for Positive no: subjects responding to the peptide at baseline, of 7 subjects
[4] = baseline samples, second ELISPOT after CD8 depletion, 4 = CD4, 8 = CD8

C/C=C/[C@H]1O[C@@](O)([C@@H](C)[C@H](O)[C@H](C)[C@H]2OC(=O)/C(OC)=C/C(C)=C/[C@@H](C)[C@@H](O)[C@@H](CC)[C@@H](O)[C@H](C)C/C(C)=C/C=C/[C@@H]2OC)C[C@@H](O)[C@@H]1C [concanamycin]
Sensitivity of CD4 T cell killing of autologous target cells to concanamycin [1]: sensitive

EIRASVGKMIDGIGRFYI [NP05]
SFC/million PBMC (range) [2]: 141.5 (35-248) SFC/million PBMC | CD4 or CD8 dependency [2]: 4 | Number positive (%) [2]: 26% | Number positive [2]: 2

GENGRKTRIAYERMCNIL [NP27]
CD4 or CD8 dependency [3]: 8 | SFC/million PBMC, days after challenge 7 [3]: 157 SFC/million PBMC | SFC/million PBMC, days after challenge 28 [3]: 10 SFC/million PBMC | SFC/million PBMC, days after challenge −2 [3]: 30 SFC/million PBMC | SFC/million PBMC (range) ([3]; baseline samples): 30 SFC/million PBMC | CD4 or CD8 dependency [3, 4]: 8 | Positive no(%) [3]: 14% | Positive no [3]: 1

GKWMRELVLYDKEEIRRI [NP15]
SFC/million PBMC (range) [2]: 93 (45-141) SFC/million PBMC | CD4 or CD8 dependency [2]: 4 | Number positive (%) [2]: 26% | Number positive [2]: 2

GQTSVQPTFSVQRNLPF [NP57]
SFC/million PBMC (range) [2]: 10 SFC/million PBMC | CD4 or CD8 dependency [2]: 4 | Number positive (%) [2]: 13% | Number positive [2]: 1

HRSHRQMVATTNPLIKH [Peptide M23]
SFC/million PBMC (range) [2]: 158 SFC/million PBMC | CD4 or CD8 dependency [2]: 4 | Number positive (%) [2]: 13% | Number positive [2]: 1

IAYERMCNILKGKFQTAA (Influenza A virus) [NP28, synthetic peptide of H1N1 influenza A NP protein, amino acid position 217-234]
CD4 or CD8 dependency [3]: 8 | SFC/million PBMC, days after challenge 7 [3]: 67 SFC/million PBMC | SFC/million PBMC, days after challenge 28 [3]: 10 SFC/million PBMC | SFC/million PBMC, days after challenge −2 [3]: 40 SFC/million PBMC | SFC/million PBMC (range) ([3]; baseline samples): 40 SFC/million PBMC | CD4 or CD8 dependency [3, 4]: 8 | Positive no(%) [3]: 14% | Positive no [3]: 1

IKHENRMVLASTTAKAM (Influenza A virus) [Peptide M25, synthetic peptide of H3N2 influenza A M protein, amino acid position 173-189]
SFC/million PBMC (range) [2]: 118 SFC/million PBMC | CD4 or CD8 dependency [2]: 4 | Number positive (%) [2]: 13% | Number positive [2]: 1

KFQTAAQRAMVDQVRESR (Influenza A virus) [NP32, synthetic peptide of H3N2 influenza A NP protein, amino acid position 229-246]
SFC/million PBMC (range) [2]: 104 SFC/million PBMC | CD4 or CD8 dependency [2]: 8 | Number positive (%) [2]: 13% | Number positive [2]: 1

KLSDHEGRLIQNSLTIEK [NP08]
SFC/million PBMC (range) [2]: 26 SFC/million PBMC | CD4 or CD8 dependency [2]: 4 | Number positive (%) [2]: 13% | Number positive [2]: 1

LKREITFHKAKEIALSY [Peptide M15]
SFC/million PBMC (range) [2]: 67 (35-96) SFC/million PBMC | CD4 or CD8 dependency [2]: 4 | Number positive (%) [2]: 38% | Number positive [2]: 3

PIYRRVDGKWMRELVLY [NP14]
SFC/million PBMC (range) [2]: 113 (45-181) SFC/million PBMC | CD4 or CD8 dependency [2]: 4 | Number positive (%) [2]: 26% | Number positive [2]: 2

QPTFSVQRNLPFDKTTIM [NP52]
SFC/million PBMC (range) ([3]; baseline samples): 26 SFC/million PBMC | CD4 or CD8 dependency [3, 4]: 4 | Positive no(%) [3]: 14% | CD4 or CD8 dependency ([3]; subject B017(2C)): 4 | SFC/million PBMC, days after challenge 7 ([3]; subject B017(2C), day 7): 76 SFC/million PBMC | SFC/million PBMC, days after challenge 28 ([3]; subject B017(2C), day 28): 10 SFC/million PBMC | SFC/million PBMC, days after challenge −2 ([3]; subject B017(2C), day −2): 26 SFC/million PBMC | Positive no [3]: 1

RMVLSAFDERRNKYLEEH (Influenza A virus) [NP09, synthetic peptide of H1N1 influenza A NP protein, amino acid position 65-82]
CD4 or CD8 dependency [3]: 4 | SFC/million PBMC, days after challenge 7 [3]: 187 SFC/million PBMC | SFC/million PBMC, days after challenge 28 [3]: 113 SFC/million PBMC | SFC/million PBMC, days after challenge −2 [3]: 38 SFC/million PBMC | SFC/million PBMC (range) ([3]; baseline samples): 38 SFC/million PBMC | CD4 or CD8 dependency [3, 4]: 4 | Positive no(%) [3]: 14% | Positive no [3]: 1

SNLNDATYQRTRALVR (Influenza A virus) [NP20, synthetic peptide of H3N2 influenza A NP protein, amino acid position 141-156]
SFC/million PBMC (range) [2]: 391 SFC/million PBMC | CD4 or CD8 dependency [2]: 8 | Number positive (%) [2]: 13% | Number positive [2]: 1

TFSVQRSLPFEKSTIMAA [NP58]
SFC/million PBMC (range) [2]: 10 SFC/million PBMC | CD4 or CD8 dependency [2]: 4 | Number positive (%) [2]: 13% | Number positive [2]: 1

TYQRTRAVLRTGMDPRM (TYQRTRALVRTGMDPRM; Influenza A virus) [NP21, synthetic peptide of H3N2 influenza A NP protein, amino acid position 147-163]
SFC/million PBMC (range) [2]: 331 SFC/million PBMC | CD4 or CD8 dependency [2]: 8 | Number positive (%) [2]: 13% | Number positive [2]: 1

VKLYRKLKREITFHGAKE (Influenza A virus) [Peptide M13, synthetic peptide of H1N1 influenza A M protein, amino acid position 97-114]
CD4 or CD8 dependency [3]: 4 | SFC/million PBMC, days after challenge 7 [3]: 70 SFC/million PBMC | SFC/million PBMC, days after challenge 28 [3]: 10 SFC/million PBMC | SFC/million PBMC, days after challenge −2 [3]: 30 SFC/million PBMC | SFC/million PBMC (range) ([3]; baseline samples): 41 (30-52) SFC/million PBMC | CD4 or CD8 dependency [3, 4]: 4 | Positive no(%) [3]: 28% | CD4 or CD8 dependency ([3]; subject B017(2C)): 4 | SFC/million PBMC, days after challenge 7 ([3]; subject B017(2C), day 7): 316 SFC/million PBMC | SFC/million PBMC, days after challenge 28 ([3]; subject B017(2C), day 28): 33 SFC/million PBMC | SFC/million PBMC, days after challenge −2 ([3]; subject B017(2C), day −2): 52 SFC/million PBMC | Positive no [3]: 2
